Data on seven molecules can be found in ChEMBL document CHEMBL4316626, “N-Acyl pyrazoles: Effective and tunable inhibitors of serine hydrolases” (Bioorg Med Chem, 2019).

The pIC50 is the negative decadic logarithm of the IC50, by convention in mol/L. Read a low pIC50 as a high IC50. As a reminder, the pKi is the negative decadic logarithm of the Ki, by convention in mol/L. The inhibition is the relative decrease from the control value, in per cent.

Assay [1] deals with T1, Neutral cholesterol ester hydrolase 1 (Mus musculus, UniProt Q8BLF1).
T1 sequence (Q8BLF1 whole entry): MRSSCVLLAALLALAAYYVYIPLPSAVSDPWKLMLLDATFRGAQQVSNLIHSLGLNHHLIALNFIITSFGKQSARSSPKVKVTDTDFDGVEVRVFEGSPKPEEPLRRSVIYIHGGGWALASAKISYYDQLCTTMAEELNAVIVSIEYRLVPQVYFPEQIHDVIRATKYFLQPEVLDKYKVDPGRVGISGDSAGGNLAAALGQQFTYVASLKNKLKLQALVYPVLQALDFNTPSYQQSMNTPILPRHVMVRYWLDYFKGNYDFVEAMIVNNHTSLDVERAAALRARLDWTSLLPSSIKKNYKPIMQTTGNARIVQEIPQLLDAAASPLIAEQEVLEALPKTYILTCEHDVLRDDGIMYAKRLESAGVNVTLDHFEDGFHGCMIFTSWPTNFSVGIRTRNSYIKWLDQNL
Description: Inhibition of FP-rhodamine probe binding to KIAA1363 in mouse brain membrane proteome preincubated for 1 hr followed by FP-rhodamine addition and measured after 30 mins by SDS-PAGE based fluorescence assay. It is filed as cell membranes.

Assay [2] in a line: Inhibition of recombinant rat FAAH deltaTM mutant expressed in Escherichia coli using 14C-labeled oleamide as substrate preincubated for 3 hrs followed by substrate addition and measured by TLC based Dixon-plot analysis. Conditions: read-out: Ki(app).
The target of assay [3] is T2, Fatty-acid amide hydrolase 1 (Mus musculus, UniProt O08914).
T2 sequence (O08914 whole entry): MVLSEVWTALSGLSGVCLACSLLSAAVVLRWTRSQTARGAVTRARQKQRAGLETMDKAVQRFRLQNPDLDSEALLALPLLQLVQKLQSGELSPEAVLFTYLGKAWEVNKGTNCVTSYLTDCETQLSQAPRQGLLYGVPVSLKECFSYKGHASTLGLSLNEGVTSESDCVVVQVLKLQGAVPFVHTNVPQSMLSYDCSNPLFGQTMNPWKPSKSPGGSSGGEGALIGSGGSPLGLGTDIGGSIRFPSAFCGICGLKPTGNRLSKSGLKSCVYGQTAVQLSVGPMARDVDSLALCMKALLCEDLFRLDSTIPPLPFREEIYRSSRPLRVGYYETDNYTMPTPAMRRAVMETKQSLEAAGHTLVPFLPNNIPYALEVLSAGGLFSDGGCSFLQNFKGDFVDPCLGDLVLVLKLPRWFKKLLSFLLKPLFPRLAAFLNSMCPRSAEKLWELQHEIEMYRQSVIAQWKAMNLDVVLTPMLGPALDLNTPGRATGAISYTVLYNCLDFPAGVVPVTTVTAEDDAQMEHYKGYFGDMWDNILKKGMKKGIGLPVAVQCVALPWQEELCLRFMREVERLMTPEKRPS
The assay is described as follows: Inhibition of FP-rhodamine probe binding to FAAH in mouse brain membrane proteome preincubated for 1 hr followed by FP-rhodamine addition and measured after 30 mins by SDS-PAGE based fluorescence assay. The assay is classed as cell membranes.

Another assay is filed under the species Mus musculus. Description: Selectivity ratio of IC50 for inhibition of FP-rhodamine probe binding to ABHD6 in mouse brain membrane proteome to IC50 for inhibition of FP-rhodamine probe binding to MGLL in mouse brain membrane proteome. The assay is classed as cell membranes.
In another assay the target is T3, Monoglyceride lipase (Mus musculus, UniProt O35678).
T3 sequence (O35678 whole entry): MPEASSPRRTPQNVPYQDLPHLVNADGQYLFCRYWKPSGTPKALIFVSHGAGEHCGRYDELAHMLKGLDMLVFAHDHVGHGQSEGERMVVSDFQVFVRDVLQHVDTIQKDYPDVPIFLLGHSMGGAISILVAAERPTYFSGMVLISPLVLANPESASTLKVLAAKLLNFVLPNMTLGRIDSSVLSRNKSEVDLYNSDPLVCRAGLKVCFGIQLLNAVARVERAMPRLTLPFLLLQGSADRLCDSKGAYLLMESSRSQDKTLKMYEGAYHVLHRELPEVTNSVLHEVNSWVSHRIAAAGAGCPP
Description: Inhibition of FP-rhodamine probe binding to MGLL in mouse brain membrane proteome preincubated for 1 hr followed by FP-rhodamine addition and measured after 30 mins by SDS-PAGE based fluorescence assay. The assay is classed as cell membranes.

Assay [4] has as its target T4, Monoacylglycerol lipase ABHD6 (Mus musculus, UniProt Q8R2Y0).
T4 sequence (Q8R2Y0 whole entry): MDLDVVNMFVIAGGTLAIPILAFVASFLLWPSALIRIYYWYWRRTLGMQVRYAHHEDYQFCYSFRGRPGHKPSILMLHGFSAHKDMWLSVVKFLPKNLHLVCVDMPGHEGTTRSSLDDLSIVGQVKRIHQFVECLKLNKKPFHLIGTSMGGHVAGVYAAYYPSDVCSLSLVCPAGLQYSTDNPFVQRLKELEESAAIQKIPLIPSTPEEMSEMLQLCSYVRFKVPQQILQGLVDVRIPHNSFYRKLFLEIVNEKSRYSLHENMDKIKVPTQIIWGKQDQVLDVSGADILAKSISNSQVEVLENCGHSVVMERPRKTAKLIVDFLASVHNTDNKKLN
The assay is described as follows: Inhibition of FP-rhodamine probe binding to ABHD6 in mouse brain membrane proteome preincubated for 1 hr followed by FP-rhodamine addition and measured after 30 mins by SDS-PAGE based fluorescence assay. It is filed as cell membranes.

Assay [5] is filed under the species Rattus norvegicus. The assay is described as follows: Inhibition of recombinant rat FAAH deltaTM mutant expressed in Escherichia coli at 10 nM using 14C-labeled oleamide as substrate preincubated for 3 hrs by TLC method relative to control.
The species entered for assay [6] is Rattus norvegicus. Description: Irreversible inhibition of recombinant rat FAAH deltaTM mutant expressed in Escherichia coli at 10 nM using 14C-labeled oleamide as substrate preincubated for 3 hrs followed by dialysis for 18 hrs.
The species entered for assay [7] is Rattus norvegicus. Description: Time-dependent irreversible inhibition of recombinant rat FAAH deltaTM mutant expressed in Escherichia coli using 14C-labeled oleamide as substrate by TLC method.
The species entered for assay [8] is Rattus norvegicus. The assay is described as follows: Irreversible inhibition of recombinant rat FAAH deltaTM mutant expressed in Escherichia coli at 100 nM using 14C-labeled oleamide as substrate preincubated for 3 hrs followed by dialysis for 18 hrs.
The species named for assay [9] is Rattus norvegicus. Description: Inhibition of recombinant rat FAAH deltaTM mutant expressed in Escherichia coli at 100 nM using 14C-labeled oleamide as substrate preincubated for 3 hrs by TLC method relative to control.
The species named for assay [10] is Rattus norvegicus. The assay is described as follows: Irreversible inhibition of recombinant rat FAAH deltaTM mutant expressed in Escherichia coli at 50 nM using 14C-labeled oleamide as substrate preincubated for 3 hrs followed by dialysis for 18 hrs.
For assay [11], the species on record is Rattus norvegicus. Description: Inhibition of recombinant rat FAAH deltaTM mutant expressed in Escherichia coli at 50 nM using 14C-labeled oleamide as substrate preincubated for 3 hrs by TLC method relative to control.

pIC50, pKi: −log10 of the molar value. Calls of active or inactive are those of the source. The calls are words filed in the database; no cut-off is given here.

As to `N#Cc1cnn(C(=O)N2CCN(C(c3ccc(OCc4ccccc4)cc3)c3ccc(OCc4ccccc4)cc3)CC2)c1`, the pIC50 is below 4.00 in assay [1], 3.10 in [3], 7.70 at Monoglyceride lipase and 3.89 in [4]. Moreover, the negative logarithm of the Ki (pKi) in [2] was 4.60. In the assay filed under Mus musculus, the Ratio IC50 was above 1000.

For the molecule `N#Cc1cnn(C(=O)N2CCN(Cc3ccc(OCc4ccccc4)cc3)CC2)c1`, the negative-log IC50 (pIC50) in assay [1] is below 4.00; in assay [3], above 8.00; at Monoglyceride lipase, above 8.00; in assay [4], above 8.00. Further, in assay [2], the negative logarithm of the Ki (pKi) was 9.80. In addition, the inhibition in the assay filed under Rattus norvegicus [5] was above 70%. The inhibition entry in the assay listed under Rattus norvegicus [6] is “Active”. In addition, the TDI entry in the assay filed under Rattus norvegicus [7] is “Active”.

As to `Cc1cnn(C(=O)N2CCN(Cc3ccc(OCc4ccccc4)cc3)CC2)c1`, the negative logarithm of the IC50 (pIC50) in [1] was below 4.00; in [3], 6.19; at Monoglyceride lipase, 6.70; in [4] it was 8.00. The negative logarithm of the Ki (pKi) in [2] was 7.00. For the same molecule, the inhibition result in the assay listed under Rattus norvegicus [8] is “Active”. For the same molecule, in the assay filed under Rattus norvegicus [9], the inhibition was above 70%. In addition, the TDI result in the assay filed under Rattus norvegicus [7] was “Active”.

Consider `N#Cc1cnn(C(=O)N2CCN(C(c3ccc4ccccc4c3)c3ccc4ccccc4c3)CC2)c1`, for which the pIC50 is below 4.00 in assay [1], below 4.00 in [3], 8.10 at Monoglyceride lipase and 6.25 in [4]. The Ratio IC50 in the assay listed under Mus musculus was 70.

Consider `N#Cc1cnn(C(=O)N2CCN(Cc3ccc4ccccc4c3)CC2)c1`, for which the pIC50 was below 4.00 in assay [1], above 8.00 in assay [3], 7.26 at Monoglyceride lipase and above 8.00 in [4]. Moreover, the pKi in assay [2] was 9.80. In the assay listed under Rattus norvegicus [5], the inhibition is above 70%. Moreover, the inhibition result in the assay filed under Rattus norvegicus [6] is “Active”.

For the molecule `O=C(N1CCN(Cc2ccc3ccccc3c2)CC1)n1cccn1`, the negative-log IC50 (pIC50) in assay [1] was below 4.00; in assay [3] it was 7.05; at Monoglyceride lipase it was 6.02; in assay [4], 8.00. Besides, the inhibition result in the assay filed under Rattus norvegicus [10] was “Active”. In assay [2], the pKi is 8.01. The inhibition in the assay filed under Rattus norvegicus [11] was above 70%.

Take `O=C(N1CCN(Cc2ccc(OCc3ccccc3)cc2)CC1)n1cccn1`: the pIC50 in assay [1] was below 4.00; in [3], 7.22; at Monoglyceride lipase it was 6.35; in assay [4] it was 6.66. Further, the inhibition entry in the assay filed under Rattus norvegicus [10] is “Active”. Further, the pKi in [2] was 8.00. The TDI result in the assay filed under Rattus norvegicus [7] is “Active”. Moreover, the inhibition in the assay listed under Rattus norvegicus [11] is above 70%.
